Measured values taken from ChEMBL document CHEMBL5223132, “Structure-activity relationships of mixed σ1R/σ2R ligands with antiproliferative and anticancer effects” (Bioorg Med Chem, 2022).
Each block holds one compound with its values, some of them ahead of it.

What was measured:
[1] = target: T1, Sigma non-opioid intracellular receptor 1 (Cavia porcellus, UniProt Q60492); test: Displacement of [3H]pentazocine from sigma 1 receptor expressed in guinea pig brain membranes assessed as inhibition constant by radioligand binding assay; type: cell membranes, Membrane
[2] = target: T2, Sigma intracellular receptor 2 (Rattus norvegicus, UniProt Q5U3Y7); test: Displacement of [3H]DTG from sigma 2 receptor expressed in rat liver membranes assessed as inhibition constant in presence of (+)-pentazocine by radioligand binding assay; type: cell membranes, Membrane
T2 sequence (Q5U3Y7 whole entry): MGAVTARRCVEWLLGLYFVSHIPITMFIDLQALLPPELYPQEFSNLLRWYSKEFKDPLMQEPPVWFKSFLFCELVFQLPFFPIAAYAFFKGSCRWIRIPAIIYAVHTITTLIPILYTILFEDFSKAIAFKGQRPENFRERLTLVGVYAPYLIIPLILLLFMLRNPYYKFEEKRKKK

[3] = target: ATP-dependent translocase ABCB1 (Homo sapiens, UniProt P08183); test: Inhibition of P-gp transporter (unknown origin) expressed in dog MDCK-MDR1 assessed as inhibition of fluorescent Calcein-AM transport by fluorescence based assay; type: cell-based
[4] = system: PC-3; test: Antiproliferative activity against human PC-3 cells assessed as reduction in cell viability incubated for 48 hrs by MTT assay; type: functional, cell-based; conditions: PC-3, 48 h
[5] = system: SK-N-SH; test: Antiproliferative activity against human SK-N-SH cells assessed as reduction in cell viability incubated for 48 hrs by MTT assay; type: functional, cell-based
[6] = target: T3, Sigma intracellular receptor 2 (Homo sapiens, UniProt Q5BJF2); test: Binding affinity to human sigma 2 receptor
[7] = target: T4, Sigma non-opioid intracellular receptor 1 (Homo sapiens, UniProt Q99720); test: Binding affinity to sigma 1 receptor (unknown origin)
[8] = target: T3, Sigma intracellular receptor 2; test: Binding affinity to sigma 2 receptor (unknown origin)
[9] = target: T2, Sigma intracellular receptor 2; test: Binding affinity to sigma 2 receptor expressed in rat liver; type: tissue-based
[10] = target: T3, Sigma intracellular receptor 2; test: Binding affinity to sigma 2 receptor (unknown origin) expressed in human RT-4 cells; type: cell-based
[11] = system: A-427; test: Antiproliferative activity against human A-427 cells assessed as reduction in cell viability; type: functional, cell-based
[12] = system: 5637; test: Antiproliferative activity against human 5637 cells assessed as reduction in cell viability; type: functional, cell-based
[13] = system: MCF7; test: Antiproliferative activity against human MCF7 cells assessed as reduction in cell viability; type: functional, cell-based
[14] = target: T3, Sigma intracellular receptor 2; test: Displacement of [H3]DTG from sigma 2 receptor (unknown origin) by competition binding assay
[15] = target: T4, Sigma non-opioid intracellular receptor 1; test: Binding affinity to human sigma 1 receptor
[16] = target: T1, Sigma non-opioid intracellular receptor 1; test: Displacement of [3H]pentazocine from sigma 1 receptor expressed in guinea pig brain membranes assessed as inhibition constant incubated for 150 mins by radioligand binding assay; type: cell membranes, Membrane
[17] = target: T2, Sigma intracellular receptor 2; test: Displacement of [3H]DTG from sigma 2 receptor expressed in rat liver membranes assessed as inhibition constant incubated for 120 mins in presence of (+)-SKF10047 by radioligand binding assay; type: cell membranes, Membrane
[18] = system: SK-MEL-28; test: Anti-proliferative against human SK-MEL-28 cells assessed as reduction in cell viability incubated for 24 hrs by MTT assay; type: functional, cell-based; conditions: SK-MEL-28, 24 h
[19] = system: SK-MEL-28; test: Anti-proliferative against human SK-MEL-28 cells assessed as reduction in cell viability incubated for 48 hrs by MTT assay; type: functional, cell-based; conditions: SK-MEL-28, 48 h
[20] = system: MDA-MB-231; test: Anti-migratory activity against human MDA-MB-231 cells assessed as reduction in cell migration at 10 uM and measured after 12 hrs by wound healing assay; type: functional; set-up: scale not given: the % may be the effect or the level left
[21] = system: MDA-MB-231; test: Anti-invasive activity against human MDA-MB-231 cells assessed as decrease in cell invasion at 10 uM incubated for 24 hrs by 3D spheroid invasion assay; type: functional; set-up: scale not given: the % may be the effect or the level left
[22] = target: T4, Sigma non-opioid intracellular receptor 1; test: Displacement of [H3]DTG from sigma 1 receptor (unknown origin) by competition binding assay
[23] = Binding affinity to human sigma 1 receptor
[24] = Anti-proliferative against human U-87 MG cells assessed as reduction in cell viability incubated for 24 hrs by MTT assay; type: functional, cell-based, U-87MG ATCC
[25] = Anti-proliferative against human U-87 MG cells assessed as reduction in cell viability incubated for 48 hrs by MTT assay; type: functional, cell-based, U-87MG ATCC
[26] = Anti-proliferative against human U-87 MG cells assessed as reduction in cell viability incubated for 72 hrs by MTT assay; type: functional, cell-based, U-87MG ATCC
[27] = system: MDCK-MDR1; test: Anticancer against dog MDCK-MDR1 cells assessed as reduction in cell viability at 50 uM incubated for 48 hrs by MTT assay; type: functional, Canis lupus familiaris
[28] = system: MDCK-MDR1; test: Anticancer against dog MDCK-MDR1 cells assessed as reduction in cell viability at 30 uM incubated for 48 hrs in presence of doxorubicin by MTT assay; type: functional, Canis lupus familiaris
[29] = system: MDCK-MDR1; test: Anticancer against dog MDCK-MDR1 cells assessed as reduction in cell viability at 50 uM incubated for 48 hrs in presence of doxorubicin by MTT assay; type: functional, Canis lupus familiaris
[30] = target: T1, Sigma non-opioid intracellular receptor 1; test: Binding affinity to sigma 1 receptor expressed in guinea pig brain; type: tissue-based
[31] = target: T4, Sigma non-opioid intracellular receptor 1; test: Binding affinity to sigma 1 receptor (unknown origin) expressed in human RPMI-8226 cells; type: cell-based
[32] = system: RPMI-8226; test: Antiproliferative activity against human RPMI-8226 cells assessed as reduction in cell viability; type: functional, cell-based
[33] = Anti-proliferative against human U-87 MG cells assessed as reduction in cell viability at 40 uM incubated for 24 hrs by MTT assay; type: functional, U-87MG ATCC
[34] = system: RPMI-8226; test: Anti-proliferative against human RPMI-8226 cells assessed as reduction in cell viability at 40 uM incubated for 24 hrs by MTT assay; type: functional
[35] = system: RPMI-8226; test: Induction of apoptosis in human RPMI-8226 cells assessed as total apoptotic cells incubated for 48 hrs by annexin-V/propidium iodide staining based flow cytometry; type: functional
[36] = system: MCF7; test: Antiproliferative activity against human MCF7 cells assessed as reduction in cell proliferation at 100 uM incubated for 48 hrs by MTT assay; type: functional; set-up: scale not given: the % may be the effect or the level left
[37] = target: D(2) dopamine receptor (Homo sapiens, UniProt P14416); test: Binding affinity to D2R receptor (unknown origin)
[38] = target: T5, 5-hydroxytryptamine receptor 1A (Homo sapiens, UniProt P08908); test: Binding affinity to 5-HT1A receptor (unknown origin) by […]
T5 sequence (P08908 whole entry): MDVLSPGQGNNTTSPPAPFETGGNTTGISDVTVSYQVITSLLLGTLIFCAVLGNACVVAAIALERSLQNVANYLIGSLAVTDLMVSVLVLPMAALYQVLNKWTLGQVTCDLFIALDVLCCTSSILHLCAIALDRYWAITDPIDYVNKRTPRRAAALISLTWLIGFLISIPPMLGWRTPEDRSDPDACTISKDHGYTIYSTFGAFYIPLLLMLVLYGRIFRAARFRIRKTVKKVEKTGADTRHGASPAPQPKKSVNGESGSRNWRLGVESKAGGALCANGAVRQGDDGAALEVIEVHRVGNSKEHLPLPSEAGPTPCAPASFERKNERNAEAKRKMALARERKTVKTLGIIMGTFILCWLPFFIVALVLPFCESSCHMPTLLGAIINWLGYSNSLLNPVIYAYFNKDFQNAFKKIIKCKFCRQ

T4 sequence (Q99720 whole entry): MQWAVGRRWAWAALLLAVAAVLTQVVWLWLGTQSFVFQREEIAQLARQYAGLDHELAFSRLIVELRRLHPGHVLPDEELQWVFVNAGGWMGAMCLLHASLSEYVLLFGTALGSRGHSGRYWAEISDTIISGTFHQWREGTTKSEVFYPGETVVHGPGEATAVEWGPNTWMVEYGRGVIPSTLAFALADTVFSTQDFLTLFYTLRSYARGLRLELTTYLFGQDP
T1 sequence (Q60492 whole entry): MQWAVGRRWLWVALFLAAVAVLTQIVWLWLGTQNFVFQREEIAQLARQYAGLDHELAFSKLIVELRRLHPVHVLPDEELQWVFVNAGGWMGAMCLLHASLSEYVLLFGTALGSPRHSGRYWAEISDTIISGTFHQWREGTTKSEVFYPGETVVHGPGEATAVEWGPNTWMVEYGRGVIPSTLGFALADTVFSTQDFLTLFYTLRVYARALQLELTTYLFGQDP
T3 sequence (Q5BJF2 whole entry): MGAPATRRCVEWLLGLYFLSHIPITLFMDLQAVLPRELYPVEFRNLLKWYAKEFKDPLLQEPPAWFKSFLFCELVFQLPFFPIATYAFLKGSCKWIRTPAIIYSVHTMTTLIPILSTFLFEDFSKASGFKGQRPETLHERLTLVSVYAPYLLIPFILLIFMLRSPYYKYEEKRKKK
Sequence of ATP-dependent translocase ABCB1 (P08183 whole entry): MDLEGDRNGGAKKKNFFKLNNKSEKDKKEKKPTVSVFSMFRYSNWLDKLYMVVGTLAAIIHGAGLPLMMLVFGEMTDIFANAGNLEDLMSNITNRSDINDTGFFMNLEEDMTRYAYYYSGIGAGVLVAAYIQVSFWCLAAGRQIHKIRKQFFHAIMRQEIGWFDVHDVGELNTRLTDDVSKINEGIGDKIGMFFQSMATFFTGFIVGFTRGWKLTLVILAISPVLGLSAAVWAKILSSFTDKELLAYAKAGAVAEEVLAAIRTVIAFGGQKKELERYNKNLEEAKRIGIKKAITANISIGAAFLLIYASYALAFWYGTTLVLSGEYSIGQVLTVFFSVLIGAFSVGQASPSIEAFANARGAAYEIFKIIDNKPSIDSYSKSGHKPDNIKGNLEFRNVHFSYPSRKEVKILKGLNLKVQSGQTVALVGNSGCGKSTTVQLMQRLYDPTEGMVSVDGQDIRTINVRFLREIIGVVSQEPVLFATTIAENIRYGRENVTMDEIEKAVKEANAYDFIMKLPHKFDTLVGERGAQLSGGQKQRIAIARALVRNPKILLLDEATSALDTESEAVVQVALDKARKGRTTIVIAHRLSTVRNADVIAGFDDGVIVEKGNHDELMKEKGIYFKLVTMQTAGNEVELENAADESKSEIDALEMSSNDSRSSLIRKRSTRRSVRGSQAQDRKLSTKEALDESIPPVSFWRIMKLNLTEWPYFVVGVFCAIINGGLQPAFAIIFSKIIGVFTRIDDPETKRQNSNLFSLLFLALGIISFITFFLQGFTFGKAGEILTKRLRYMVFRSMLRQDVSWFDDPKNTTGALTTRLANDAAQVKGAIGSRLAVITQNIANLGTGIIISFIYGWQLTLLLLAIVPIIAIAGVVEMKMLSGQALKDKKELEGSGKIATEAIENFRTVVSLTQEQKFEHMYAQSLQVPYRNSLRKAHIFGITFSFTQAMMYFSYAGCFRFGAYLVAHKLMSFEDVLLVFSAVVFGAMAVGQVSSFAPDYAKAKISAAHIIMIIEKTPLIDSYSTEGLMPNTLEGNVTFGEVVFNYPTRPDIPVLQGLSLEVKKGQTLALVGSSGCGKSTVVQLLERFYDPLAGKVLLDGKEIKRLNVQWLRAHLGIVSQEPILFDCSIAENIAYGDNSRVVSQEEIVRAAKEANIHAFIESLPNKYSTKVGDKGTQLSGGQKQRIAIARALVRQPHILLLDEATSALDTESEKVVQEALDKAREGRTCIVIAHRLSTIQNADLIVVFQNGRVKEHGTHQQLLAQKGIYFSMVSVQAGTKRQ
Sequence of D(2) dopamine receptor (P14416 whole entry): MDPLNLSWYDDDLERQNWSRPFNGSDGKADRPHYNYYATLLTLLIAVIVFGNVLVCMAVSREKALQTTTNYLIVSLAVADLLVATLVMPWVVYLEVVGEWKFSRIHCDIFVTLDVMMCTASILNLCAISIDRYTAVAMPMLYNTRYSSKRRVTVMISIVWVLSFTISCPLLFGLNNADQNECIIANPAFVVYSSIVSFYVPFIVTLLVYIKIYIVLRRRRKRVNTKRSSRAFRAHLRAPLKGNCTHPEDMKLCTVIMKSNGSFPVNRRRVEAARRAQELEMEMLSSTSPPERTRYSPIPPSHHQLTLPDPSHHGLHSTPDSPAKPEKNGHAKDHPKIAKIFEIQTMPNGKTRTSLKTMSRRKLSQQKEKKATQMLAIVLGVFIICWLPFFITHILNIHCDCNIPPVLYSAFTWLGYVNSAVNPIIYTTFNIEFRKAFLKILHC

Ki [1]: 0.63 nM
Ki [2]: 14.1 nM
EC50 [3]: 7300 nM
EC50 [4]: 40600 nM
EC50 [5]: 12100 nM
Compound: Fc1cccc(F)c1[C@H]1CC[C@@H](N2CCN(C3CCCCC3)CC2)CC1

Compound: CCCN(CCC)CCc1ccc(OC)c(OCCc2ccccc2)c1
Ki [6]: 170 nM

Compound: O=c1sc2cc(CCCF)ccc2n1CCN1CCCCCC1
Ki [7]: 0.0025 nM

Ki [7]: 23.9 nM
Ki [8]: 2 nM
Compound: COc1cc2c(cc1OC)CN(CCCCNC(=O)c1cc(C)ccc1OCC[18F])CC2

Ki [6]: 32100 nM
Compound: O=C(OCCN1CCOCC1)C1(c2ccccc2)CCCCC1

Ki [9]: 73 nM
Ki [10]: 43 nM
IC50 [13]: 8830 nM
Compound: OCC[C@H]1CN(CC2CCCCC2)CCN1Cc1ccc(-c2ccccc2)cc1
IC50 [11]: 9250 nM
IC50 [12]: 10500 nM

Ki [9]: 38 nM
Ki [10]: 39 nM
IC50 [13]: > 20000 nM
Compound: OCC[C@@H]1CN(CC2CCCCC2)CCN1Cc1ccc(-c2ccccc2)cc1
IC50 [11]: 3460 nM
IC50 [12]: 6570 nM

Compound: COc1ccc(C)cc1NC(=O)OC1CC2CCCC(C1)N2CCCCCCCCCCN (stereo not given)
Ki [14]: 7.7 nM

Ki [15]: 0.08 nM
Ki [6]: 1380 nM
Compound: CCCN1CCC=C(c2cc(-c3ccc(C)cc3)no2)C1

Ki [16]: 537 nM
Ki [17]: 19.5 nM
IC50 [18]: 52000 nM
IC50 [19]: 22000 nM
Compound: c1ccc(CC2CCN(CC3CSC4(CCCCC4)S3)CC2)cc1 (stereo not given)

Compound: O=C(CCCN1CCCN(c2ccc(Cl)cc2)CC1)c1ccc(F)cc1
Activity [20]: 95%
Activity [21]: 49%

Compound: CCN(C/C=C\c1ccc(C2CCCCC2)c(Cl)c1)C1CCCCC1
Ki [22]: 2 nM
IC50 [14]: 45 nM

Ki [6]: 25.2 nM
Ki [23]: 1.7 nM
Compound: O=C(NC1CCN(Cc2ccccc2)CC1)c1ccc(I)cc1

Ki [1]: 16 nM
Ki [2]: 285 nM
Compound: CCCCCCCNCCC1CCN(C)C(c2ccccc2)C1 (stereo not given)

Ki [7]: 11.8 nM
Ki [8]: 206 nM
Compound: CCN(CC)CCNC(=O)c1ccc(OC)c([123I])c1

Compound: CN1C(=O)CCc2cc(CNC(C)(C)[C@@H](O)c3ccccc3)ccc21
Ki [22]: > 1000 nM
Ki [14]: 4 nM

Compound: C1=C(c2c[nH]c3ncccc23)CCN(CCCc2ccccc2)C1
Ki [22]: 29 nM

Ki [1]: 2.4 nM
Ki [2]: 36 nM
Compound: CCCCCCNCC[C@H]1CCC[C@@H](c2ccccc2)O1

Compound: C/C(=C\CN1CCN(Cc2ccc(C(F)(F)F)cc2)CC1)c1ccccc1
IC50 ([24]; Homo sapiens, U-87 MG, 24 h): 28300 nM
IC50 ([24]; u-87mg atcc): 22300 nM
IC50 [25]: 22300 nM
IC50 [26]: 19000 nM

Compound: C/C(=C\CN1CCN(C(=O)C2CCCC2)CC1)c1ccccc1
IC50 ([24]; Homo sapiens, U-87 MG, 24 h): 39000 nM
IC50 [25]: 39000 nM
IC50 [26]: 11200 nM

Ki [1]: 0.26 nM
Ki [2]: 7.92 nM
EC50 [3]: 800 nM
EC50 [4]: 31300 nM
EC50 [5]: 32500 nM
Compound: COc1cccc(OC)c1[C@H]1CC[C@@H](N2CCN(C3CCCCC3)CC2)CC1
Activity [27]: 50%
Activity [28]: 70%
Activity [29]: 90%

Ki [1]: 0.95 nM
Ki [2]: 57 nM
Compound: CCCCCCNCC[C@@H]1CCC[C@H](c2ccccc2)O1

Ki [30]: 1.9 nM
Ki [9]: 26 nM
Ki [31]: 29 nM
Ki [10]: 16 nM
IC50 [32]: 1290 nM
IC50 [13]: 9770 nM
Compound: CCN1CCN(Cc2cccc3ccccc23)[C@@H](CCO)C1
IC50 [11]: 9120 nM
IC50 [12]: 3650 nM

Compound: C/C(=C\CN1CCN(Cc2ccccc2)CC1)c1ccc2ccccc2c1
Activity [33]: 34%
Activity [34]: 65%

Ki [16]: 6.16 nM
Ki [17]: 75.9 nM
IC50 [18]: 50000 nM
IC50 [19]: 38000 nM
Compound: c1ccc(CN2CCN(CC3CSC4(CCCCC4)S3)CC2)cc1 (stereo not given)

Compound: COc1ccc(/C(C)=C/CN2CCN(Cc3ccc(C(F)(F)F)cc3)CC2)cc1
IC50 ([24]; Homo sapiens, U-87 MG, 24 h): 27600 nM
IC50 ([24]; u-87mg atcc): 24100 nM
IC50 [25]: 24100 nM
IC50 [26]: 20600 nM

Ki [30]: 0.9 nM
Ki [9]: 14 nM
Ki [31]: 7.5 nM
Ki [10]: 37 nM
IC50 [32]: 8530 nM
IC50 [13]: 9050 nM
Compound: CCN1CCN(Cc2cccc3ccccc23)[C@H](CCO)C1
IC50 [11]: 5020 nM
IC50 [12]: 4790 nM
Activity [35]: 32%

Compound: OC(CCCN1CCC(O)(c2ccc(Cl)cc2)CC1)c1ccc(F)cc1 (racemic) [HYDROXYHALOPERIDOL]
Activity [36]: 98%

Ki [7]: 17 nM
Ki [37]: 10000 nM
Compound: CCCN1CCC(c2cccc(S(C)(=O)=O)c2)CC1 [PRIDOPIDINE]

Ki [38]: 7.53 nM
Compound: O=C(CN1CCC(CN2Cc3ccccc3C2=O)CC1)c1ccc(F)cc1 [ROLUPERIDONE]
